One test concerns the target Mcl-1 protein (UniProtKB primary accession number: Q07820) (Homo sapiens, UniProt Q07820). Put plainly: Inhibition of Mcl-1 by fluorescence polarisation, Method 1. To be noted: fluorescence polarisation test; Method 2 values are underlined in the patent (underlining not visible here); read-out: IC50 (M) Mcl-1 FP. The class given is binding. Put shortly:
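Binding was measured as fluorescence polarisation of a fluorescein-labelled ligand (1 nM) displaced from Mcl-1 (5 nM), both final. Compounds ran as 11-point series with final DMSO at 5%.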

Test [1] has as its system H929 multiple myeloma tumour line. The test is described as follows: In vitro cytotoxicity, Microculture Tetrazolium Assay. The class given is cell-based. To be noted: Homo sapiens, NCI-H929, 48 h, H929 cells, 48 hours exposure, MTT; read-out: IC50 (μM) MTT H929. As for the experimental part:
The cytotoxicity studies were carried out on the H929 multiple myeloma tumour line.
The cells are distributed onto microplates and exposed to the test compounds for 48 hours.

Each structure is given as a SMILES string.

The IC50 is the midpoint of a concentration-inhibition curve.

Mcl-1 protein, sequence (Q07820 whole entry): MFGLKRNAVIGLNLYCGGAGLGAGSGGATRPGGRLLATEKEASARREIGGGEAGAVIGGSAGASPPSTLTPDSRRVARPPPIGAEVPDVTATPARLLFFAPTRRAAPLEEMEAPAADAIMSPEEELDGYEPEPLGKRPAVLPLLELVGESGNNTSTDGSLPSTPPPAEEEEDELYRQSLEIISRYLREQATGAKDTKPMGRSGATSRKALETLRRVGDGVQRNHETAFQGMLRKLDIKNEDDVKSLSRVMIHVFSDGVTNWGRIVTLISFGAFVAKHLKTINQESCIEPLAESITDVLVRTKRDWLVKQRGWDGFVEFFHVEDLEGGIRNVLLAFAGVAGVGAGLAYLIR

In the case of `COCCOCCOc1ccccc1CC(Oc1ncnc2sc(-c3ccc(F)o3)c(-c3ccc(OCCN4CCN(C)CC4)c(Cl)c3C)c12)C(=O)O` [Example 196, (2R)-2-{[(5Sa)-5-{3-chloro-2-methyl-4-[2-(4-methylpiperazin-1-yl)ethoxy]phenyl}-6-(5-fluorofuran-2-yl)thieno[2,3-d]pyrimidin-4-yl]oxy}-3-{2-[2-(2-methoxyethoxy)ethoxy]phenyl}propanoic acid], the IC50 on Mcl-1 protein came to 5.6e-09 M; in test [1], 0.076 µM.
Taken in the same sequence, the figures for `COCCOCCOCCOc1ccccc1CC(Oc1ncnc2sc(-c3ccc(F)o3)c(-c3ccc(OCCN4CCN(C)CC4)c(Cl)c3C)c12)C(=O)O` [Example 197, (2R)-2-{[(5Sa)-5-{3-chloro-2-methyl-4-[2-(4-methylpiperazin-1-yl)ethoxy]phenyl}-6-(5-fluorofuran-2-yl)thieno[2,3-d]pyrimidin-4-yl]oxy}-3-(2-{2-[2-(2-methoxyethoxy)ethoxy]ethoxy}phenyl)propanoic acid] were 5.4e-09 M and 0.07 µM.
As to `COc1ccccc1CC(Oc1ncnc2sc(-c3ccc(F)o3)c(-c3ccc(OCCN(C)C)c(Cl)c3C)c12)C(=O)O` [Example 199, (2R)-2-{[(5Sa)-5-{3-chloro-4-[2-(dimethylamino)ethoxy]-2-methylphenyl}-6-(5-fluorofuran-2-yl)thieno[2,3-d]pyrimidin-4-yl]oxy}-3-(2-methoxyphenyl)propanoic acid], the IC50 is 6.6e-09 M on Mcl-1 protein and 0.28 µM in test [1].
In the same order, the values of `Cc1c(-c2c(-c3ccc(F)o3)sc3ncnc(OC(Cc4ccccc4OCC(F)(F)F)C(=O)O)c23)ccc(OCCN(C)C)c1Cl` [Example 200, (2R)-2-{[(5Sa)-5-{3-chloro-4-[2-(dimethylamino)ethoxy]-2-methylphenyl}-6-(5-fluorofuran-2-yl)thieno[2,3-d]pyrimidin-4-yl]oxy}-3-[2-(2,2,2-trifluoroethoxy)phenyl]propanoic acid] are 6.1e-09 M and 0.106 µM.
Regarding `Cc1c(-c2c(-c3ccc(F)o3)sc3ncnc(OC(Cc4ccccc4OCc4ccnc(C(F)(F)F)n4)C(=O)O)c23)ccc(OCCN(C)C)c1Cl` [Example 201, (2R)-2-{[(5Sa)-5-{3-chloro-4-[2-(dimethylamino)ethoxy]-2-methylphenyl}-6-(5-fluorofuran-2-yl)thieno[2,3-d]pyrimidin-4-yl]oxy}-3-(2-{[2-(trifluoromethyl)pyrimidin-4-yl]methoxy}phenyl)propanoic acid], the IC50 worked out at 5.8e-09 M on Mcl-1 protein and 0.027 µM in test [1].
In the case of `Cc1c(-c2c(-c3ccc(F)o3)sc3ncnc(OC(Cc4ccccc4OCc4ccnc(OCC(F)(F)F)n4)C(=O)O)c23)ccc(OCCN(C)C)c1Cl` [Example 203, (2R)-2-{[(5Sa)-5-{3-chloro-4-[2-(dimethylamino)ethoxy]-2-methylphenyl}-6-(5-fluorofuran-2-yl)thieno[2,3-d]pyrimidin-4-yl]oxy}-3-(2-{[2-(2,2,2-trifluoroethoxy)pyrimidin-4-yl]methoxy}phenyl)propanoic acid], the IC50 amounted to 9.1e-09 M on Mcl-1 protein and 0.005 µM in test [1].
Taken in the same sequence, the figures for `CCn1nccc1COc1ccccc1CC(Oc1ncnc2sc(-c3ccc(F)o3)c(-c3ccc(OCCN(C)C)c(Cl)c3C)c12)C(=O)O` [Example 204, (2R)-2-{[(5Sa)-5-{3-chloro-4-[2-(dimethylamino)ethoxy]-2-methylphenyl}-6-(5-fluorofuran-2-yl)thieno[2,3-d]pyrimidin-4-yl]oxy}-3-{2-[(1-ethyl-1H-pyrazol-5-yl)methoxy]phenyl}propanoic acid] were 4.9e-09 M and 0.034 µM.
Taken in the same sequence, the figures for `Cc1c(-c2c(-c3ccc(F)o3)sc3ncnc(OC(Cc4ccccc4OCc4ccnn4CC(F)(F)F)C(=O)O)c23)ccc(OCCN(C)C)c1Cl` [Example 205, (2R)-2-{[(5Sa)-5-{3-chloro-4-[2-(dimethylamino)ethoxy]-2-methylphenyl}-6-(5-fluorofuran-2-yl)thieno[2,3-d]pyrimidin-4-yl]oxy}-3-(2-{[1-(2,2,2-trifluoroethyl)-1H-pyrazol-5-yl]methoxy}phenyl)propanoic acid] were 3.8e-09 M and 0.028 µM.
In the same order, the values of `Cc1c(-c2c(-c3ccc(F)o3)sc3ncnc(OC(Cc4ccccc4OCc4cnccn4)C(=O)O)c23)ccc(OCCN(C)C)c1Cl` [Example 206, (2R)-2-{[(5Sa)-5-{3-chloro-4-[2-(dimethylamino)ethoxy]-2-methylphenyl}-6-(5-fluorofuran-2-yl)thieno[2,3-d]pyrimidin-4-yl]oxy}-3-[2-(pyrazin-2-ylmethoxy)phenyl]propanoic acid] are 8e-09 M and 0.135 µM.
As to `Cc1c(-c2c(-c3ccco3)sc3ncnc(OC(Cc4ccccc4O)C(=O)O)c23)ccc(OCCN2CCN(C)CC2)c1Cl` [Example 207, (2R)-2-{[-[(5Sa)-5-{3-chloro-2-methyl-4-[2-(4-methylpiperazin-1-yl)ethoxy]phenyl}-6-(furan-2-yl)thieno[2,3-d]pyrimidin-4-yl]oxy}-3-(2-hydroxyphenyl)propanoic acid], the IC50 came to 6.5e-09 M at Mcl-1 protein and 0.186 µM in test [1].
In the same order, the values of `Cc1c(-c2c(-c3ccco3)sc3ncnc(OC(Cc4ccccc4OC(C)c4ccncc4)C(=O)O)c23)ccc(OCCN2CCN(C)CC2)c1Cl` [Example 208, (2R)-2-{[(5Sa)-5-{3-chloro-2-methyl-4-[2-(4-methylpiperazin-1-yl)ethoxy]phenyl}-6-(furan-2-yl)thieno[2,3-d]pyrimidin-4-yl]oxy}-3-{2-[(1R)-1-(pyridin-4-yl)ethoxy]phenyl}propanoic acid] are 5.5e-09 M and 0.571 µM.
As for `Cc1c(-c2c(-c3ccco3)sc3ncnc(OC(Cc4ccccc4OC(C)C)C(=O)O)c23)ccc(OCCN2CCN(C)CC2)c1Cl` [Example 210, (2R)-2-{[(5Sa)-5-{3-chloro-2-methyl-4-[2-(4-methylpiperazin-1-yl)ethoxy]phenyl}-6-(furan-2-yl)thieno[2,3-d]pyrimidin-4-yl]oxy}-3-[2-(propan-2-yloxy)phenyl]propanoic acid], the figures for the IC50 (at Mcl-1 protein; in test [1]) were 1e-08 M and 0.406 µM, respectively.
In the same order, the values of `Cc1c(-c2c(-c3ccco3)sc3ncnc(OC(Cc4ccccc4OC4CCCC4)C(=O)O)c23)ccc(OCCN2CCN(C)CC2)c1Cl` [Example 212, (2R)-2-{[(5Sa)-5-{3-chloro-2-methyl-4-[2-(4-methylpiperazin-1-yl)ethoxy]phenyl}-6-(furan-2-yl)thieno[2,3-d]pyrimidin-4-yl]oxy}-3-[2-(cyclopentyloxy)phenyl]propanoic acid] are 1.6e-08 M and 0.616 µM.
Taken in the same sequence, the figures for `Cc1c(-c2c(-c3ccco3)sc3ncnc(OC(Cc4ccccc4OC4CCN(C)C4)C(=O)O)c23)ccc(OCCN2CCN(C)CC2)c1Cl` [Example 214, (2R)-2-{[(5Sa)-5-{3-chloro-2-methyl-4-[2-(4-methylpiperazin-1-yl)ethoxy]phenyl}-6-(furan-2-yl)thieno[2,3-d]pyrimidin-4-yl]oxy}-3-{2-[(1-methylpyrrolidin-3-yl)oxy]phenyl}propanoic acid] were 9.3e-09 M and 0.897 µM.
Taken in the same sequence, the figures for `CCOc1ccccc1CC(Oc1ncnc2sc(-c3ccco3)c(-c3ccc(OCCN4CCN(C)CC4)c(Cl)c3C)c12)C(=O)O` [Example 215, (2R)-2-{[(5Sa)-5-{3-chloro-2-methyl-4-[2-(4-methylpiperazin-1-yl)ethoxy]phenyl}-6-(furan-2-yl)thieno[2,3-d]pyrimidin-4-yl]oxy}-3-(2-ethoxyphenyl)propanoic acid] were 8e-09 M and 0.203 µM.
Turning to `C#CCOc1ccccc1CC(Oc1ncnc2sc(-c3ccco3)c(-c3ccc(OCCN4CCN(C)CC4)c(Cl)c3C)c12)C(=O)O` [Example 216, (2R)-2-{[(5Sa)-5-{3-chloro-2-methyl-4-[2-(4-methylpiperazin-1-yl)ethoxy]phenyl}-6-(furan-2-yl)thieno[2,3-d]pyrimidin-4-yl]oxy}-3-[2-(prop-2-yn-1-yloxy)phenyl]propanoic acid], the IC50 at Mcl-1 protein stood at 8.5e-09 M; in test [1], 0.217 µM.
In the same order, the values of `Cc1c(-c2c(-c3ccco3)sc3ncnc(OC(Cc4ccccc4OCC(=O)N(C)C)C(=O)O)c23)ccc(OCCN2CCN(C)CC2)c1Cl` [Example 217, (2R)-2-{[(5Sa)-5-{3-chloro-2-methyl-4-[2-(4-methylpiperazin-1-yl)ethoxy]phenyl}-6-(furan-2-yl)thieno[2,3-d]pyrimidin-4-yl]oxy}-3-{2-[2-(dimethylamino)-2-oxoethoxy]phenyl}propanoic acid] are 5.3e-09 M and 1.48 µM.
In the case of `CNC(=O)COc1ccccc1CC(Oc1ncnc2sc(-c3ccco3)c(-c3ccc(OCCN4CCN(C)CC4)c(Cl)c3C)c12)C(=O)O` [Example 218, (2R)-2-{[(5Sa)-5-{3-chloro-2-methyl-4-[2-(4-methylpiperazin-1-yl)ethoxy]phenyl}-6-(furan-2-yl)thieno[2,3-d]pyrimidin-4-yl]oxy}-3-{2-[2-(methylamino)-2-oxoethoxy]phenyl}propanoic acid], the IC50 worked out at 6.5e-09 M on Mcl-1 protein and 0.805 µM in test [1].
Taken in the same sequence, the figures for `Cc1c(-c2c(-c3ccco3)sc3ncnc(OC(Cc4ccccc4OCC(=O)Nc4ccccc4)C(=O)O)c23)ccc(OCCN2CCN(C)CC2)c1Cl` [Example 219, (2R)-2-{[(5Sa)-5-{3-chloro-2-methyl-4-[2-(4-methylpiperazin-1-yl)ethoxy]phenyl}-6-(furan-2-yl)thieno[2,3-d]pyrimidin-4-yl]oxy}-3-{2-[2-oxo-2-(phenylamino)ethoxy]phenyl}propanoic acid] were 9.9e-09 M and 0.191 µM.

Source of the values: US9670227B2, “Thienopyrimidine derivatives, a process for their preparation and pharmaceutical compositions containing them” (LES LABORATOIRES SERVIER, priority 2013, dated 2017).
